Data taken from patent publication US10233173B2, “Substituted 1,2,3-triazoles as NR2B-selective NMDA modulators” (JANSSEN PHARMACEUTICA NV, priority 2016, dated 2019).

Target: human GluN1/GluN2B NMDA receptors (Homo sapiens, UniProt Q05586+Q13224)
Assay: Cell-based calcium flux (FLIPR) assay on cloned human NR1/NR2B ion channels expressed in mammalian cells
Conditions: standard assay; human GluN1/GluN2B, calcium flux (FLIPR), glutamate ~EC80
Description: Effects of Test Articles on Cloned Human NR1/NR2B Ion Channels Expressed in Mammalian Cells
NMDA receptors are ion channels that are highly permeable to Ca^2+ ions, rendering it possible to monitor NMDA receptor function using cell-based calcium flux assay. In this assay, co-agonists glutamate and glycine are added to cells heterologously expressing human GluN1/GluN2B NMDA receptors to initiate cellular Ca^2+ influx. The time course of the changes in intracellular calcium is measured using a fluorescent dye and a FLIPR (Fluorometric Imaging Plate Reader) device.
Twenty four hours before measurements, the expression of the NMDA receptors in the stable cell line is induced with Tet-On inducible system in the presence of a non-selective NMDA receptor blocker. On the day of the experiment, cell culture media is carefully washed and the cells are loaded with Calcium 5 Dye Kit (Molecular Devices) in dye loading buffer containing 149 mM NaCl, 4 mM KCl, 2 mM CaCl2, and 1.5 mM MgCl2, 10 mM HEPES and 5 mM D-glucose; pH 7.4. After 1 h incubation at the room temperature, the dye is washed away with the assay buffer (149 mM NaCl (standard assay) or 150 mM (HTS assay), 4 mM KCl (standard assay) or 3 mM (HTS assay), 2 mM CaCl2, 0.01 mM EDTA, 10 mM HEPES and 5 mM D-glucose; pH 7.4) In the FLIPR TETRA reader, various concentrations of the test compounds are added to the cells for 5 min while fluorescence is monitored to detect potential agonist activity. Next, co-agonists, glutamate and glycine are added for another 5 minutes. The concentration of glutamate corresponding to ˜EC80 (standard assay) or EC40 (HTS assay) is used to maximize the assay's signal window or the ability to detect NMDA receptor antagonists and negative allosteric modulators, respectively. A saturating concentration (10 μM) of glycine is also present in the assay. […] The fluorescent signal in the presence of test compounds is quantified and normalized to the signal defined by the appropriate control wells.

Sequence of human GluN1/GluN2B NMDA receptors (Q13224 27-1484, other chains not shown): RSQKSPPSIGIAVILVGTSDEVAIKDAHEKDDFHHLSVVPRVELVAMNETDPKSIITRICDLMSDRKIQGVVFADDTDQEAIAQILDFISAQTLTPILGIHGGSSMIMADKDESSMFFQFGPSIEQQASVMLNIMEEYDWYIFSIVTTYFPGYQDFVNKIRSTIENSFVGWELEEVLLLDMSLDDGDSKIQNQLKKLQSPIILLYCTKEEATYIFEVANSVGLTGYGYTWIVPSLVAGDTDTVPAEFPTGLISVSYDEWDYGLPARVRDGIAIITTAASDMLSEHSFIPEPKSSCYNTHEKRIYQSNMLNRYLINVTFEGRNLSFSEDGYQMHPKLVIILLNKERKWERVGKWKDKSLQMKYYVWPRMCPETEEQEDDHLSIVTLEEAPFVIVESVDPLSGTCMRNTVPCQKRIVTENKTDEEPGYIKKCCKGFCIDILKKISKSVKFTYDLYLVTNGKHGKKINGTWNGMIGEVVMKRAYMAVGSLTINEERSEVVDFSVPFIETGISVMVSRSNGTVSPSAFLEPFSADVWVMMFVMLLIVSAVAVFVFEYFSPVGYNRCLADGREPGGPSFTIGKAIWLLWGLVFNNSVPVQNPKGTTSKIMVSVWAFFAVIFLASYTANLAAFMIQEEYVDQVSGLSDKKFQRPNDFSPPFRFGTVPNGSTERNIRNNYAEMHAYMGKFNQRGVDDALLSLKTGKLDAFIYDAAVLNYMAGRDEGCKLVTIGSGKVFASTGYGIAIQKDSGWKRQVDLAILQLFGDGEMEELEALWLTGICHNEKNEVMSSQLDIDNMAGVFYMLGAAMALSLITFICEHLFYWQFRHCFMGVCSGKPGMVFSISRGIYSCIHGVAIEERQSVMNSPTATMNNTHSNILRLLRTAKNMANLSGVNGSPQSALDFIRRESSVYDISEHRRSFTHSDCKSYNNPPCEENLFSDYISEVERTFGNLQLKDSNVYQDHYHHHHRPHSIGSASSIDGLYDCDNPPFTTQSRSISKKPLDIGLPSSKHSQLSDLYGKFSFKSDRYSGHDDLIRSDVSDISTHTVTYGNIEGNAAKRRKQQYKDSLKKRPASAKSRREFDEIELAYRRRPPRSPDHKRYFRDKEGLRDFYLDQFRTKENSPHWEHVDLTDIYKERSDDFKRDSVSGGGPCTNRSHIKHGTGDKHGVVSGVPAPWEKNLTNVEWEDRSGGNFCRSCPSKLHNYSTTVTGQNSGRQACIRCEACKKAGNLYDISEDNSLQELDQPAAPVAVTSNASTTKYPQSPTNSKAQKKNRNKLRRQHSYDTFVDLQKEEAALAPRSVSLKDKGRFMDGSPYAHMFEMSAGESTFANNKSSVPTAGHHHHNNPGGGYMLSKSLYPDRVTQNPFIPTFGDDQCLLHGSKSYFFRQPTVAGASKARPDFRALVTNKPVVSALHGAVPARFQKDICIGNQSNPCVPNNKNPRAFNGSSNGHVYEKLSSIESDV

Q: `Cc1cnc(OCc2cn(-c3ccc(F)c(Br)c3)nn2)nc1` [Example 16, 2-[[1-(3-Bromo-4-fluoro-phenyl)triazol-4-yl]methoxy]-5-methylpyrimidine] was tested. Which IC50 did it give?
A: 0.001 µM

Q: For `Cc1ccnc(OCc2cn(-c3ccc(F)c(Br)c3)nn2)n1` [Example 17, 2-[[1-(3-Bromo-4-fluoro-phenyl)triazol-4-yl]methoxy]-4-methylpyrimidine], which IC50 is on record?
A: 0.01 µM

Q: For `Cc1cc(C)nc(OCc2cn(-c3ccc(F)c(Br)c3)nn2)n1` [Example 18, 2-[[1-(3-Bromo-4-fluoro-phenyl)triazol-4-yl]methoxy]-4,6-dimethyl-pyrimidine], which IC50 is on record?
A: 0.082 µM

Q: For `Fc1cnc(OCc2cn(-c3ccc(F)c(Br)c3)nn2)nc1` [Example 19, 2-[[1-(3-Bromo-4-fluoro-phenyl)triazol-4-yl]methoxy]-5-fluoropyrimidine], which IC50 is on record?
A: 0.056 µM

Q: How did the IC50 turn out when `COc1cc(-n2cc(COc3ncccn3)nn2)ccc1F` [Example 20, 2-[[1-(4-Fluoro-3-methoxy-phenyl)triazol-4-yl]methoxy]pyrimidine] was run?
A: 1 µM

Q: Which IC50 does the source give for `Cc1ccnc(OCc2cn(-c3ccc(Cl)c(OC(F)F)c3)nn2)n1` [Example 21, 2-[[1-[4-Chloro-3-(difluoromethoxy)phenyl]triazol-4-yl]methoxy]-4-methyl-pyrimidine] here?
A: 0.002 µM

Q: `Cc1cnc(OCc2cn(-c3ccc(Cl)c(OC(F)F)c3)nn2)nc1` [Example 22, 2-[[1-[4-Chloro-3-(difluoromethoxy)phenyl]triazol-4-yl]methoxy]-5-methyl-pyrimidine] was tested. Which IC50 did it give?
A: 0.002 µM

Q: With `FC(F)Oc1cc(-n2cc(COc3cnccn3)nn2)ccc1Cl` [Example 23, 2-[[1-[4-Chloro-3-(difluoromethoxy)phenyl]triazol-4-yl]methoxy]pyrazine] as the molecule, how does the IC50 read?
A: 0.456 µM

Q: For `Fc1ccc(-n2cc(CNc3ncccn3)nn2)cc1C(F)F` [Example 24, N-[[1-[3-(Difluoromethyl)-4-fluoro-phenyl]triazol-4-yl]methyl]pyrimidin-2-amine], which IC50 is on record?
A: 0.824 µM

Q: With `Fc1ccc(-n2cc(COc3ncccn3)nn2)cc1C(F)F` [Example 25, 2-((1-(3-(difluoromethyl)-4-fluorophenyl)-1H-1,2,3-triazol-4-yl)methoxy)pyrimidine] as the molecule, how does the IC50 read?
A: 0.05 µM

Q: How did the IC50 turn out when `COc1cnc(OCc2cn(-c3ccc(Cl)c(OC(F)F)c3)nn2)nc1` [Example 26, 2-[[1-[4-Chloro-3-(difluoromethoxy)phenyl]triazol-4-yl]methoxy]-5-methoxy-pyrimidine] was run?
A: 0.003 µM

Q: For `CCc1cnc(OCc2cn(-c3ccc(Cl)c(OC(F)F)c3)nn2)nc1` [Example 27, 2-[[1-[4-Chloro-3-(difluoromethoxy)phenyl]triazol-4-yl]methoxy]-5-ethyl-pyrimidine], which IC50 is on record?
A: 0.009 µM

Q: `FC(F)Oc1cc(-n2cc(COc3ncc(Cl)cn3)nn2)ccc1Cl` [Example 28, 5-Chloro-2-[[1-[4-chloro-3-(difluoromethoxy)phenyl]triazol-4-yl]methoxy]pyrimidine] was tested. Which IC50 did it give?
A: 0.002 µM

Q: How did the IC50 turn out when `COc1ccnc(OCc2cn(-c3ccc(Cl)c(OC(F)F)c3)nn2)n1` [Example 29, 2-[[1-[4-Chloro-3-(difluoromethoxy)phenyl]triazol-4-yl]methoxy]-4-methoxy-pyrimidine] was run?
A: 0.011 µM

Q: How did the IC50 turn out when `Cc1ccnc(OCc2cn(-c3ccc(Cl)c(C(F)F)c3)nn2)n1` [Example 30, 2-[[1-[4-Chloro-3-(difluoromethyl)phenyl]triazol-4-yl]methoxy]-4-methyl-pyrimidine] was run?
A: 0.004 µM

Q: Which IC50 does the source give for `Cc1cnc(OCc2cn(-c3ccc(Cl)c(C(F)F)c3)nn2)nc1` [Example 31, 2-[[1-[4-Chloro-3-(difluoromethyl)phenyl]triazol-4-yl]methoxy]-5-methyl-pyrimidine] here?
A: 0.001 µM

Q: For `CCc1cnc(OCc2cn(-c3ccc(Cl)c(C(F)F)c3)nn2)nc1` [Example 32, 2-[[1-[4-Chloro-3-(difluoromethyl)phenyl]triazol-4-yl]methoxy]-5-ethyl-pyrimidine], which IC50 is on record?
A: 0.002 µM

Q: `Fc1ccc(-n2cc(COc3ncccn3)nn2)cc1OC(F)F` [Example 33, 2-[[1-[3-(Difluoromethoxy)-4-fluoro-phenyl]triazol-4-yl]methoxy]pyrimidine] was tested. Which IC50 did it give?
A: 0.018 µM

Q: How did the IC50 turn out when `Cc1cnc(OCc2cn(-c3ccc(Cl)c(OC(F)F)c3)nn2)cn1` [Example 34, 2-[[1-[4-Chloro-3-(difluoromethoxy)phenyl]triazol-4-yl]methoxy]-5-methyl-pyrazine] was run?
A: 0.159 µM

Q: `FC(F)Oc1cnc(OCc2cn(-c3ccc(Cl)c(OC(F)F)c3)nn2)nc1` [Example 35, 2-[[1-[4-Chloro-3-(difluoromethoxy)phenyl]triazol-4-yl]methoxy]-5-(difluoromethoxy)pyrimidine] was tested. Which IC50 did it give?
A: 0.006 µM

Q: With `Fc1ccc(-n2cc(CNc3ncccn3)nn2)cc1OC(F)F` [Example 36, N-[[1-[3-(Difluoromethoxy)-4-fluoro-phenyl]triazol-4-yl]methyl]pyrimidin-2-amine] as the molecule, how does the IC50 read?
A: 0.351 µM

Q: Which IC50 does the source give for `Cc1c(F)ccc(-n2cc(COc3ncc(Cl)cn3)nn2)c1F` [Example 37, 5-Chloro-2-[[1-(2,4-difluoro-3-methyl-phenyl)triazol-4-yl]methoxy]pyrimidine] here?
A: 0.053 µM

Q: Which IC50 does the source give for `Cc1cnc(OCc2cn(-c3ccc(F)c(C)c3F)nn2)nc1` [Example 38, 2-[[1-(2,4-Difluoro-3-methyl-phenyl)triazol-4-yl]methoxy]-5-methyl-pyrimidine] here?
A: 0.027 µM

Q: Which IC50 does the source give for `CCc1cnc(OCc2cn(-c3ccc(F)c(C)c3F)nn2)nc1` [Example 39, 2-[[1-(2,4-Difluoro-3-methyl-phenyl)triazol-4-yl]methoxy]-5-ethyl-pyrimidine] here?
A: 0.015 µM

Q: `CCc1cnc(OCc2cn(-c3ccc(F)c(Br)c3)nn2)nc1` [Example 40, 2-[[1-(3-Bromo-4-fluoro-phenyl)triazol-4-yl]methoxy]-5-ethyl-pyrimidine] was tested. Which IC50 did it give?
A: 0.001 µM

Q: `Fc1ccc(-n2cc(COc3ncc(Cl)cn3)nn2)cc1Br` [Example 42, 2-((1-(3-bromo-4-fluorophenyl)-1H-1,2,3-triazol-4-yl)methoxy)-5-chloropyrimidine] was tested. Which IC50 did it give?
A: 0.003 µM

Q: Which IC50 does the source give for `CC(C)c1cnc(OCc2cn(-c3ccc(F)c(Br)c3)nn2)nc1` [Example 43, 2-[[1-(3-Bromo-4-fluoro-phenyl)triazol-4-yl]methoxy]-5-isopropylpyrimidine] here?
A: 0.005 µM

Q: Which IC50 does the source give for `Fc1ccc(-n2cc(COc3ncc(C(F)(F)F)cn3)nn2)cc1Br` [Example 44, 2-[[1-(3-Bromo-4-fluoro-phenyl)triazol-4-yl]methoxy]-5-(trifluoromethyl)pyrimidine] here?
A: 0.005 µM

Q: Which IC50 does the source give for `FC(F)c1cc(-n2cc(COc3ncc(C(F)(F)F)cn3)nn2)ccc1Cl` [Example 45, 2-[[1-[4-Chloro-3-(difluoromethyl)phenyl]triazol-4-yl]methoxy]-5-(trifluoromethyl)pyrimidine] here?
A: 0.004 µM

Q: `COc1cnc(OCc2cn(-c3ccc(Cl)c(C(F)F)c3)nn2)nc1` [Example 46, 2-[[1-[4-Chloro-3-(difluoromethyl)phenyl]triazol-4-yl]methoxy]-5-methoxy-pyrimidine] was tested. Which IC50 did it give?
A: 0.001 µM

Q: For `FC(F)c1cc(-n2cc(COc3ncc(Cl)cn3)nn2)ccc1Cl` [Example 47, 5-Chloro-2-[[1-[4-chloro-3-(difluoromethyl)phenyl]triazol-4-yl]methoxy]pyrimidine], which IC50 is on record?
A: 0.003 µM

Q: For `CC(C)c1cnc(OCc2cn(-c3ccc(Cl)c(C(F)F)c3)nn2)nc1` [Example 48, 2-[[1-[4-Chloro-3-(difluoromethyl)phenyl]triazol-4-yl]methoxy]-5-isopropyl-pyrimidine], which IC50 is on record?
A: 0.008 µM

Q: With `Fc1ccc(-n2cc(COc3ncc(Cl)cn3)nn2)cc1C(F)F` [Example 49, 5-Chloro-2-[[1-[3-(difluoromethyl)-4-fluoro-phenyl]triazol-4-yl]methoxy]pyrimidine] as the molecule, how does the IC50 read?
A: 0.003 µM

Q: For `Fc1ccc(-n2cc(COc3ncc(C(F)(F)F)cn3)nn2)cc1C(F)F` [Example 50, 2-[[1-[3-(Difluoromethyl)-4-fluoro-phenyl]triazol-4-yl]methoxy]-5-(trifluoromethyl)pyrimidine], which IC50 is on record?
A: 0.007 µM

Q: For `Cc1cnc(OCc2cn(-c3ccc(F)c(C(F)F)c3)nn2)nc1` [Example 51, 2-[[1-[3-(Difluoromethyl)-4-fluoro-phenyl]triazol-4-yl]methoxy]-5-methyl-pyrimidine], which IC50 is on record?
A: 0.001 µM

Q: With `Cc1ccnc(OCc2cn(-c3ccc(F)c(C(F)F)c3)nn2)n1` [Example 52, 2-[[1-[3-(Difluoromethyl)-4-fluoro-phenyl]triazol-4-yl]methoxy]-4-methyl-pyrimidine] as the molecule, how does the IC50 read?
A: 0.008 µM

Q: Which IC50 does the source give for `Fc1ccc(-n2cc(COc3ncc(Cl)cn3)nn2)cc1OC(F)F` [Example 61, 5-Chloro-2-[[1-[3-(difluoromethoxy)-4-fluoro-phenyl]triazol-4-yl]methoxy]pyrimidine] here?
A: 0.003 µM

Q: Which IC50 does the source give for `Fc1ccc(-n2cc(COc3ncc(C(F)(F)F)cn3)nn2)cc1OC(F)F` [Example 62, 2-[[1-[3-(Difluoromethoxy)-4-fluoro-phenyl]triazol-4-yl]methoxy]-5-(trifluoromethyl)pyrimidine] here?
A: 0.007 µM
